Data set [1] concerns Jurkat human leukaemia cell line. The data set can be described thus: MTT cytotoxicity assay in Jurkat cells. The data set is classed as cell-based. Particulars: 24 h treatment, mean ± SD. How it is done: (§1) The cyto-toxicity activity was measured in vitro in HepG2, Jurkat, and HEK 293 cells using the MTT […] colorimetric assay. For comparison, 5-Fluorouracil (5-FU) was used as a standard anti-cancer drug. Treatment with dimethylsulfoxide (DMSO) was used as a control for the cancer cells.
(§2) The stock concentration of the entire compound in DMSO was 10 mM and this concentration was used to prepare the working dilution. The final DMSO concentration used in the experiments was ≤0.5% as the working concentration. Human liver cancer cell lines (HepG2), human leukemia cell line (Jurkat), and human embryonic kidney cell line (HEK293) cells were cultured in high glucose Dulbecco’s Modified Eagle Medium (DMEM: Life technologies cat #11995073) supplemented with 10% Fetal bovine serum (FBS: Life technologies cat #16000044) in a humidified incubator with 5% CO2 at 37 °C. Around 2 ×10^3 cells were seeded in each well of a 24-well cell culture plate and were allowed to adhere and grow for 24 h. The Jurkat cells grow in suspension so they were cultured and allowed to grow overnight before the addition of compounds. The compounds in serial dilutions (1, 3, 15, 45, 100, and 300 μM) were added after 24 h of culture and the cells were cultured for another 24 h at 37 °C. The cell viability was determined in each experiment using MTT 1-(4,5-dimethylthiazol-2-yl)-3,5-diphenylformazan colorimetric assay. Briefly, the treated or untreated cells were trypsenized and centrifuged, and the resulting pellet was re-suspended in 100 μL of DMEM serum-free medium and incubated at 37 °C for 2 h. After incubation, 20 μL of MTT solution (5 mg/mL in PBS: Sigma Aldrich cat #M2003) was added to each well and further incubated for 2 h. The plate was centrifuged at […] for 10 min then the medium was removed from each well and 2-propanol containing 0.04 M HCl was added to dissolve the formazan produced in the cells. The optical density of the formazan product in solution was measured with a microplate reader at 540 nm. The experiment was conducted in triplicate. Data were calculated as percent of cell viability by the following formula:
(§3) % cell viability = (Mean absorbance in test wells/Mean absorbance in control wells) × 100 (1)
(§4) The IC50 values were calculated from the means of six different concentrations by Bio Data Fit 1.02 using the software Bio Tool Kit (Version 300; Chang Bioscience Inc., Castro Valley, CA, USA) and online program http://ic50.tk/index.html.
In general terms: Tetrazolium dyes change colour on reduction, which living cells bring about.

Data set [2] has as its system HEK293 human embryonic kidney cell line. The data set can be described thus: MTT cytotoxicity assay in normal HEK293 cells. The data set is classed as cell-based. The settings on record: 24 h treatment, mean ± SD; for IC50: Homo sapiens. How it is done: as §1, §2, §3, §4
For data set [3], the system named is HepG2 human liver cancer cell line. As to the kind of experiment: MTT cytotoxicity assay in HepG2 cells. The data set is classed as cell-based. Particulars: 24 h treatment, mean ± SD; for IC50: Homo sapiens. As to the method:
as §1, §2, §3, §4

Data set [4] deals with human tumour cell lines (HepG2 and Jurkat). The data set can be described thus: MTT assay, summary over the tested human tumour cell lines. The data set is classed as cell-based. The settings on record: summary over HepG2 and Jurkat cells. As to the method: as §1, §2, §3, §4

Structures are written as SMILES. Entries after “also recorded” stand apart in the source; their conditions may differ. Where only a bound is given, the exact number is not on record here.

A word on the IC50: it is the concentration at which inhibition is half-maximal. Higher therefore signals lower potency. Consider `O=C1Nc2ccccc2C1=O` [Compound 3a], for which the IC50 in data set [1] (Homo sapiens, Jurkat, 24 h) was > 100 µM; in data set [2], 16.7 ± 50 µM; in data set [3], > 100 µM. For the same molecule, in data set [3], the “IC50 (μM) HepG2” value was “no anti-cancer activity”.
With `CCCC(CCC)C(=O)NN` [Compound 2, Valproic Hydrazide], the IC50 in data set [1] (Homo sapiens, Jurkat, 24 h) is > 100 µM; in data set [2], > 100 µM; in data set [3], 68.5 ± 37.1 µM. In addition, the “IC50 (μM) HepG2” value in data set [3] is on record as “did not show promising anti-cancer activity”.
For the molecule `CN1C(=O)C(=O)c2ccccc21` [Compound 3e], the IC50 in data set [1] (Homo sapiens) was 7.13 µM; in data set [4], 3 to 7 µM; in data set [2], > 100 µM; in data set [3], 2.82 µM. In data set [2], the “IC50 (μM) HEK293” value was “no activity”.
In general, melting point refers to the temperature of the solid-liquid transition. With `CCCC(CCC)C(=O)N/N=C1\C(=O)N(CCBr)c2ccccc21` [Compound 4g, (Z)-N′-(1-(2-Bromoethyl)-2-oxoindolin-3-ylidene)-2-propylpentane Hydrazide], the melting point was in the range of 90 to 91 °C. The IC50 in data set [1] (Homo sapiens) was > 100 µM. The molecule also had an IC50 in data set [2] of 45.4 ± 48.9 µM. Moreover, in data set [3], the “IC50 (μM) HepG2” value is “no anti-cancer activity” and the IC50 is > 100 µM.
On to `CCCC(CCC)C(=O)N/N=C1\C(=O)Nc2ccccc21` [Compound 4a, (Z) N′-(2-Oxoindolin-3-ylidene)-2-propylpentane Hydrazide], for which the melting point was in the range of 175 to 176 °C. In addition, in data set [1], the IC50 was determined as 3.15 µM and the “IC50 (μM) Jurkat” value is listed as “strong activity”. Besides, the IC50 in data set [1] (Homo sapiens, Jurkat, 24 h) turned out to be 3.14 µM. For the same molecule, the IC50 in data set [4] lay in the range of 3 to 7 µM. In data set [2], the “IC50 (μM) HEK293” value is “inactive” and the IC50 is > 100 µM. Further, in data set [3], the “IC50 (μM) HepG2” value is “inactive; also recorded: no anti-cancer activity” and the IC50 was > 100 µM.
Turning to `CCCC(CCC)C(=O)N/N=C1\C(=O)N(C)c2ccccc21` [Compound 4e, (Z) N′-(1-Methyl-2-oxoindolin-3-ylidene)-2-propylpentane Hydrazide], the melting point is 154 to 156 °C. For the same molecule, in data set [1] (Homo sapiens, Jurkat, 24 h), the IC50 stood at 3.19 µM. Also, the half-maximal inhibitory concentration (IC50) in data set [4] was in the range of 3 to 7 µM. In data set [2], the “IC50 (μM) HEK293” value is reported as “no activity” and the IC50 was > 100 µM. In data set [3], this molecule came in with an IC50 of 7.61 µM.
Regarding `CCCC(CCC)C(=O)N/N=C1\C(=O)Nc2ccc(Br)cc21` [Compound 4b, (Z) N′-(5-Bromo-2-oxoindolin-3-ylidene)-2-propylpentane Hydrazide], the melting point was 172 to 173 °C. Further, in data set [1] (Homo sapiens, Jurkat, 24 h), the IC50 was > 100 µM. This molecule displayed an IC50 in data set [2] of 26.1 ± 31.3 µM. Also, in data set [3], the “IC50 (μM) HepG2” value is reported as “no anti-cancer activity” and the IC50 was > 100 µM.
For `CCCC(CCC)C(=O)N/N=C1\C(=O)N(Cc2ccccc2)c2ccccc21` [Compound 4f, (Z) N′-(1-Benzyl-2-oxoindolin-3-ylidene)-2-propylpentane Hydrazide], the melting point fell in the range of 170 to 172 °C. For the same molecule, the IC50 in data set [1] (Homo sapiens, Jurkat, 24 h) is > 100 µM. The IC50 in data set [2] is > 100 µM. In addition, in data set [3], the “IC50 (μM) HepG2” value is reported as “no anti-cancer activity” and the IC50 is > 100 µM.
Take `CC(=O)N1C(=O)C(=O)c2ccccc21` [Compound 3h, N-acetylisatin]: the IC50 in data set [1] (Homo sapiens, Jurkat, 24 h) is > 100 µM; in data set [2], > 100 µM; in data set [3] it was > 100 µM. In addition, the “IC50 (μM) HepG2” value in data set [3] is “no anti-cancer activity”.
`CCCC(CCC)C(=O)O` [Compound 1, Valproic acid, reference compound]: the IC50 in data set [1] (Homo sapiens, Jurkat, 24 h) is 79.4 ± 40.7 µM; in data set [2], 63 ± 38.2 µM; in data set [3], 69.7 ± 40.8 µM. The “IC50 (μM) HepG2” value in data set [3] is recorded as “did not show promising anti-cancer activity”.
Turning to `O=c1[nH]cc(F)c(=O)[nH]1` [Compound 5-FU, 5-Fluorouracil, reference compound], the IC50 was 51.2 ± 47.4 µM in data set [1] (Homo sapiens, Jurkat, 24 h); 32 to 50 µM in data set [4]; > 100 µM in data set [2]; 32.1 ± 48.1 µM in data set [3].
Consider `O=C1C(=O)N(Cc2ccccc2)c2ccccc21` [Compound 3f], for which the “IC50 (μM) Jurkat” value in data set [1] is reported as “strong activity”. In addition, the IC50 is 3.13 µM in data set [1] (Homo sapiens, Jurkat, 24 h); 3 to 7 µM in data set [4]; > 100 µM in data set [2]; 3.13 µM in data set [3]. Moreover, the “IC50 (μM) HEK293” value in data set [2] was “no activity”.
`CCCC(CCC)C(=O)N/N=C1\C(=O)Nc2ccc(F)cc21` [Compound 4d, (Z) N′-(5-Fluoro-2-oxoindolin-3-ylidene)-2-propylpentane Hydrazide] gave a melting point of 180 to 182 °C. For the same molecule, the IC50 in data set [1] (Homo sapiens, Jurkat, 24 h) is > 100 µM. Besides, in data set [2], the IC50 was > 100 µM. In addition, in data set [3], the IC50 is > 100 µM.
Molecule `CCCC(CCC)C(=O)N/N=C1\C(=O)Nc2ccc(Cl)cc21` [Compound 4c, (Z) N′-(5-Chloro-2-oxoindolin-3-ylidene)-2-propylpentane Hydrazide] yielded a melting point of 154 to 156 °C. Also, the “IC50 (μM) Jurkat” value in data set [1] is “strong activity”. The molecule further showed an IC50 in data set [1] (Homo sapiens, Jurkat, 24 h) of 2.9 µM. The molecule further had an IC50 in data set [4] of 3 to 7 µM. In data set [2], the IC50 worked out at 4.77 µM. This molecule also returned a 50% inhibitory concentration (IC50) in data set [3] of 4.39 µM.
As to `CCCC(CCC)C(=O)NNC(=O)C(=O)c1ccccc1NC(C)=O` [Compound 4h, N-(2-(2-Oxo-2-(2-(2-propylpentanoyl)hydrazinyl)acetyl)phenyl) Acetamide], the melting point was in the range of 180 to 181 °C. Further, the IC50 in data set [1] (Homo sapiens, Jurkat, 24 h) was > 100 µM. For the same molecule, the IC50 in data set [2] is > 100 µM. Moreover, in data set [3], the “IC50 (μM) HepG2” value is recorded as “no anti-cancer activity” and the IC50 was > 100 µM.

(Values after PMC6332339, “Synthesis, Characterization, and Anti-Cancer Activity of Some New N′-(2-Oxoindolin-3-ylidene)-2-propylpentane hydrazide-hydrazones Derivatives” (Molecules, 2015).)
